Where a name gives a salt, the structure may show the parent alone. Read-outs that look alike come from different tables or passages of the source.
Legend:
5-ht1E receptor [1] = molecular target: T1, 5-ht1E receptor (Homo sapiens, UniProt P28566); assay: radioligand competition, CHO-K1 membranes; type: binding
T1 construct: gene HTR1E; full-length human recombinant receptor in CHO-K1 cells (Ogeda); crude membranes
Text: radioligand competition, CHO-K1 membranes on 5-ht1E receptor

5-HT2B receptor = molecular target: T2, 5-HT2B receptor (Homo sapiens, UniProt P41595); assay: radioligand competition, CHO-K1 membranes; type: binding
T2 construct: gene HTR2B; full-length human recombinant receptor in CHO-K1 cells (Ogeda); crude membranes
Text: radioligand competition, CHO-K1 membranes on 5-HT2B receptor

5-ht1E receptor [2] = molecular target: T1, 5-ht1E receptor; assay: biochemical; type: CHO-K1 membranes; parameters: radioligand competition binding on cell membranes, filtration and TopCount scintillation counting; details: radioligand displacement; read-out: 5‐ht1E / pIC50 (converted)
Procedure: (§1) Competition binding was performed in duplicate in the wells of a 96‐well plate containing binding buffer (optimized for each receptor), cell membrane extracts (approximately 20,000 cells distributed in the 96‐well plate), radiotracer, and test agonist. Non‐specific binding was determined by co‐incubation with 200‐fold excess of competitor. Cells were incubated and exposed to varying concentrations (1 pM to 10 μM) of a range of displacer agonists (see below). The samples were incubated in a final volume of 0.1 ml and then filtered over Unifilter plates (Perkin Elmer, Massachusetts, USA) pretreated for 2 hr to limit tracer non‐specific binding. Filters were washed five times with 0.5 ml of ice‐cold washing buffer (tris 50 mM pH 7.4) and 50 μl of Microscint 20 (Perkin Elmer) were added to each filter. The plates were incubated 15 min at room temperature on an orbital shaker and then counted with a TopCount™ (Perkin Elmer) for 1 min per well. […] Additionally, the reference values obtained were compared to historical values obtained from the same receptor and used to validate the experimental session. […] For the new assays developed in this study (i.e., 5‐ht1E receptor), the two independent pIC50 determined must be concordant with a 1 log unit interval for the assays to be validated.

5-ht1E receptor [3] = molecular target: T1, 5-ht1E receptor; assay: cell-based; parameters: species or system CHO-K1; cAMP HTRF agonist assay, Gi coupled receptors, inhibition of stimulated cAMP; details: cAMP
Procedure: Concentration–response curves were performed in parallel with the agonists. […] After addition of the lysis buffer and 1‐hr incubation, cAMP concentrations were estimated according to the manufacturer specification with the HTRF kit (Cisbio International, Codelet, France). In brief, increasing concentrations of agonists were added to stably transfected cells in buffer in an Optiplate (PerkinElmer Life Sciences, Massachusetts, USA). The plates were incubated, and cells were then lysed by the addition of HTRF reagents (cAMP‐Cryptate and anti‐cAMP‐d2 reagents) and diluted in lysis buffer, followed by incubation at room temperature. […] Additionally, the reference values obtained were compared to historical values obtained from the same receptor and used to validate the experimental session. […] For the new assays developed in this study (i.e., 5‐ht1E receptor), the two independent pIC50 determined must be concordant with a 1 log unit interval for the assays to be validated.

5-ht1E receptor [4] = molecular target: T1, 5-ht1E receptor; assay: biochemical; type: CHO-K1 membranes; parameters: GTPγS agonist functional assay; details: GTPγS
Text: Additionally, the reference values obtained were compared to historical values obtained from the same receptor and used to validate the experimental session. […] For the new assays developed in this study (i.e., 5‐ht1E receptor), the two independent pIC50 determined must be concordant with a 1 log unit interval for the assays to be validated.

5-HT2A receptor [5] = molecular target: T3, 5-HT2A receptor (Homo sapiens, UniProt P28223); assay: biochemical; type: CHO-K1 membranes; parameters: radioligand competition binding on cell membranes, filtration and TopCount scintillation counting
T3 construct: gene HTR2A; full-length human recombinant receptor in CHO-K1 cells (Ogeda); crude membranes
Procedure: as §1, with “validated. […]” for “validated.”

5-HT2A receptor [6] = molecular target: T3, 5-HT2A receptor; assay: cell-based; parameters: species or system CHO-K1; IPOne HTRF agonist assay, IP1 accumulation in adherent transfected cells
Procedure: The assay was performed on adherent cells. For agonist testing, the medium was removed and 20 μl of assay buffer plus 20 μl of the studied agonist or the reference agonist were added in each well. The plate was incubated for 60 min at 37°C with 5% CO2. IP1‐D2 reagent and anti‐IP1 cryptate reagents were dispensed in the wells, and IP1 concentrations were then measured following the manufacturer instructions (IPOne HTRF assay kit; Cisbio International, Codolet, France). In brief, increasing concentrations of agonists were added to stably transfected cells in buffer in an Optiplate (PerkinElmer Life Sciences). The plates were incubated, and cells were then lysed by the addition of HTRF reagents (IP1‐D2 reagent and anti‐IP1 cryptate reagents) and diluted in lysis buffer, followed by incubation at room temperature. […] Additionally, the reference values obtained were compared to historical values obtained from the same receptor and used to validate the experimental session. […] For the new assays developed in this study (i.e., 5‐ht1E receptor), the two independent pIC50 determined must be concordant with a 1 log unit interval for the assays to be validated. […]

5-HT1D receptor = molecular target: T4, 5-HT1D receptor (Homo sapiens, UniProt P28221); assay: radioligand competition, CHO-K1 membranes; type: binding; details: radioligand listed in supplement Table S1
T4 construct: gene HTR1D; full-length human recombinant receptor in CHO-K1 cells (Ogeda); crude membranes
Text: radioligand competition, CHO-K1 membranes on 5-HT1D receptor

5-HT1F receptor [7] = molecular target: T5, 5-HT1F receptor (Homo sapiens, UniProt P30939); assay: cAMP HTRF, stably transfected CHO-K1 cells; type: cell-based; details: agonist mode; inhibition of stimulated cAMP, […] min, room temperature
T5 construct: gene HTR1F; full-length human recombinant receptor in CHO-K1 cells (Ogeda)
T5 sequence (P30939 1-366): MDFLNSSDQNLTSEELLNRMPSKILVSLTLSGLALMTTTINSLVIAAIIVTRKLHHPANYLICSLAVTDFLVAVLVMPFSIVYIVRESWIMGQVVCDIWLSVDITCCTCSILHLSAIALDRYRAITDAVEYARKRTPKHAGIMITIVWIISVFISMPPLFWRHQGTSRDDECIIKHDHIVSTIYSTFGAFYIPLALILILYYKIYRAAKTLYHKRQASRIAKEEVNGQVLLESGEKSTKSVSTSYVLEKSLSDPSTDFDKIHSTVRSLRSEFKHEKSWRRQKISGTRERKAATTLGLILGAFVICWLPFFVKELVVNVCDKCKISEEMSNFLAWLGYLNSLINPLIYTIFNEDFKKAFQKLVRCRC

5-HT1B receptor = molecular target: T6, 5-HT1B receptor (Homo sapiens, UniProt P28222); assay: radioligand competition, CHO-K1 membranes; type: binding; details: radioligand listed in supplement Table S1
T6 construct: gene HTR1B; full-length human recombinant receptor in CHO-K1 cells (Ogeda); crude membranes
Text: radioligand competition, CHO-K1 membranes on 5-HT1B receptor

5-HT1F receptor [8] = molecular target: T5, 5-HT1F receptor; assay: radioligand competition, CHO-K1 membranes; type: binding; details: radioligand listed in supplement Table S1
5-HT1A receptor = molecular target: T7, 5-HT1A receptor (Homo sapiens, UniProt P08908); assay: radioligand competition, CHO-K1 membranes; type: binding; details: radioligand listed in supplement Table S1
T7 construct: gene HTR1A; full-length human recombinant receptor in CHO-K1 cells (Ogeda); crude membranes
T7 sequence (P08908 1-422): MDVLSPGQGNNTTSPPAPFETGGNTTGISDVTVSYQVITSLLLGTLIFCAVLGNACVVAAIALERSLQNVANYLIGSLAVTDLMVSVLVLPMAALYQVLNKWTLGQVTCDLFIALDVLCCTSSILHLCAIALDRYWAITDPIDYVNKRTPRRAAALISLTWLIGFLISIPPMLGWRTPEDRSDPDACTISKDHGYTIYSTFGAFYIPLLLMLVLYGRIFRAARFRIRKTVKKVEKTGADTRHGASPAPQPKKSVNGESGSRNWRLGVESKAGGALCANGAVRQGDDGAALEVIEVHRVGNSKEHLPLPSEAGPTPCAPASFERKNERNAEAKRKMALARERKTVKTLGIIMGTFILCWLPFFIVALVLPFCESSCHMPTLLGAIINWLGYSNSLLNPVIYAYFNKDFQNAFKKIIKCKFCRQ
Text: radioligand competition, CHO-K1 membranes on 5-HT1A receptor

[9] = radioligand displacement, read-out: 5‐HT2A / pIC50 (converted)
[10] = IP, read-out: 5‐HT2A / IP (converted)
[11] = radioligand displacement, read-out: 5‐HT2A / pKi (converted)
[12] = radioligand listed in supplement Table S1

T3 sequence (P28223 whole entry): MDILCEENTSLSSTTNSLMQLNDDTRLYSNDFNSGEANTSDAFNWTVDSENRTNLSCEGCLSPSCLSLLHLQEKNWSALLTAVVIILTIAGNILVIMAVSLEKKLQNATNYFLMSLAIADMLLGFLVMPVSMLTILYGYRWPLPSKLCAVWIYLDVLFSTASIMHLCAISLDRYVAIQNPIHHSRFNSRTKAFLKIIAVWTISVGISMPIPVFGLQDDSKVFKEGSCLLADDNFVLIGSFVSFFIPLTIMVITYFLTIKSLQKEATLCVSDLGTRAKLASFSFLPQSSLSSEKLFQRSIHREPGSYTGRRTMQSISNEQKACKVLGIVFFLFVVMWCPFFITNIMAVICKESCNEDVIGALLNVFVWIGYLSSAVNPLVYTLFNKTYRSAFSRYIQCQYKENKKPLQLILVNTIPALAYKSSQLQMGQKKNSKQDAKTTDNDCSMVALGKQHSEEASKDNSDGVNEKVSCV
T1 sequence (P28566 whole entry): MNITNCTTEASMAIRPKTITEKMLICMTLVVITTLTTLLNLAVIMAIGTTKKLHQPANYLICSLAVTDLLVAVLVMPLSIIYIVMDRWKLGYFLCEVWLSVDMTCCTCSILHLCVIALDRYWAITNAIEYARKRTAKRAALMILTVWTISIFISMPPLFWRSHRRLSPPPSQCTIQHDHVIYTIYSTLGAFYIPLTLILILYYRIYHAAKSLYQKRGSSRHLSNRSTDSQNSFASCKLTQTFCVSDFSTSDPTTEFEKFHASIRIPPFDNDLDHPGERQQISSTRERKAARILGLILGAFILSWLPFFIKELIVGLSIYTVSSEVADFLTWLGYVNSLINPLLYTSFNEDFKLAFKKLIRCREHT
T2 sequence (P41595 whole entry): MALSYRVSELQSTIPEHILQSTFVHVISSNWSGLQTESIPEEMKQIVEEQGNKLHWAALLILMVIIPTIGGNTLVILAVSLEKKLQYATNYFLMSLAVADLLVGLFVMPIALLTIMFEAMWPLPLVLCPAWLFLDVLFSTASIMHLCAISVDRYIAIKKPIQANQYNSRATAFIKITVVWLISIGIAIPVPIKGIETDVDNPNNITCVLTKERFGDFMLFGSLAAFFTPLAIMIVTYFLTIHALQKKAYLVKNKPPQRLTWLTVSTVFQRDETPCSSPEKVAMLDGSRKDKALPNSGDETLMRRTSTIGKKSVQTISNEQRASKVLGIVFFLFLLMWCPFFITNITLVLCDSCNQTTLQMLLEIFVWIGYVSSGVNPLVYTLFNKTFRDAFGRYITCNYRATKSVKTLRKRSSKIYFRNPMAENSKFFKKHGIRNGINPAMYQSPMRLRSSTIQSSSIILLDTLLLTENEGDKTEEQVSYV
T4 sequence (P28221 whole entry): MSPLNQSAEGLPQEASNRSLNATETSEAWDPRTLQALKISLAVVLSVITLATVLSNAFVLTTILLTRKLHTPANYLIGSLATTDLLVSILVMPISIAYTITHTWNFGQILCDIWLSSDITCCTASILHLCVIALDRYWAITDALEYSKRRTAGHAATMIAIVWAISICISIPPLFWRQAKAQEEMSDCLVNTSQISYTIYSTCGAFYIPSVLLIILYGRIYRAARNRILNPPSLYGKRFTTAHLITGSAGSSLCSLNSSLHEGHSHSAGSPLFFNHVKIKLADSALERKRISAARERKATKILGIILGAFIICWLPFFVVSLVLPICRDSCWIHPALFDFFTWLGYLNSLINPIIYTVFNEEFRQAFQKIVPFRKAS
T6 sequence (P28222 whole entry): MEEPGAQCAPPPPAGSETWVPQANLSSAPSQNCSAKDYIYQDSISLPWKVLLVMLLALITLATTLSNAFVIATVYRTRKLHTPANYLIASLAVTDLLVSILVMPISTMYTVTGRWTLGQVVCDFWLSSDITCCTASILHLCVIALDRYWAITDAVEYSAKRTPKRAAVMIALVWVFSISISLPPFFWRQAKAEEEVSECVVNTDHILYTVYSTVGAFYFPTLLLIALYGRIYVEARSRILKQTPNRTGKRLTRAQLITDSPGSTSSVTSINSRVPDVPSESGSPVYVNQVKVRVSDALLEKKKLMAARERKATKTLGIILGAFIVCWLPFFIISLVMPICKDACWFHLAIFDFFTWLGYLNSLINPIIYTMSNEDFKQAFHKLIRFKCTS

## CNS(=O)(=O)Cc1ccc2[nH]cc(CCN(C)C)c2c1 [Sumatriptan succinate]
5-ht1E receptor [1]; read-out: 5-ht1E / pKi (converted)
  Ki: 1.91 µM
5-HT2B receptor; read-out: / pKi (converted)
  Ki: > 10 µM
5-ht1E receptor [2]
  IC50: 3.8 µM
5-ht1E receptor [3]
  EC50: 1.02 µM
5-ht1E receptor [4]
  EC50: 1.62 µM

## CN(C)CCc1c[nH]c2ccc(Cn3cncn3)cc12 [Rizatriptan benzoate]
5-HT2A receptor [5]
  IC50: > 10 µM
  Ki: > 10 µM
5-HT2A receptor [6]
  EC50: > 10 µM

## c1ccc2c(c1)CC[C@H](CNCCCNC1=NCCCN1)O2 [Alniditan dihydrochloride]
5-HT2A receptor [5]; [9]
  IC50: > 10 µM
5-HT2A receptor [6]; [10]
  EC50: > 10 µM

## CN(C)CCc1c[nH]c2ccc(C[C@H]3COC(=O)N3)cc12 [Zolmitriptan]
5-HT2A receptor [5]; [9]
  IC50: > 10 µM
5-HT2A receptor [5]; [11]
  Ki: > 10 µM
5-HT2A receptor [6]; [10]
  EC50: > 10 µM

## CN1CCC(c2c[nH]c3ccc(NC(=O)c4ccc(F)cc4)cc23)CC1 [LY334370 hydrochloride]
5-HT2A receptor [5]; [9]
  IC50: 7.76 µM
5-HT2A receptor [6]; [10]
  EC50: > 10 µM

## CN(C)CCc1c[nH]c2ccc(CS(=O)(=O)N3CCCC3)cc12 [Almotriptan malate]
5-HT1D receptor
  5-HT1D / pKi: 8.26 -log M
5-HT1F receptor [7]
  5-HT1F / cAMP: 7.79 -log M
5-HT1B receptor
  5-HT1B / pKi: 8.45 -log M
5-HT1F receptor [8]
  5-HT1F / pKi: 7.57 -log M
5-HT1A receptor
  5-HT1A / pKi: 6.73 -log M
5-ht1E receptor [1]; [12]
  5-ht1E / pKi: < 5 -log M
5-HT2B receptor; [12]
  / pKi: < 5 -log M
5-HT2A receptor [5]; [9]
  IC50: > 10 µM
5-HT2A receptor [5]; [11]
  Ki: > 10 µM
5-HT2A receptor [6]; [10]
  EC50: > 10 µM
